How the values were obtained:
Format in all cases: cell-based
SIRT 1 = SIRT 1 expression, real-time PCR and western blot
Description: To confirm whether Compound 69c increases the expression of SIRT 1 through the activation of PPARβ/δ, real-time PCR and western blot were performed.

MMP1 = MMP1 expression in UVB photoaging of skin fibroblasts, Western blotting; details: skin fibroblasts pretreated with 10 µM 1 hour before 8 mJ/cm^2 UVB; after 6 hours
Description: (§1) Based on this, in order to confirm the effect of Compound 69c on the expression level of intracellular MMPs, 10 µM of Compound 69c was pretreated 1 hour prior to skin fibroblasts and irradiated with UVB of 8 mJ/cm^2. After 6 hours, cells were lysed and the expression levels of MMP1 and MMP13 were confirmed by Western blotting.

p53 = experiment: Acetylation of p53 increased by UVB
From the text: Furthermore, SIRT 1 is known to exert its function through deacetylation of various substrate proteins.

skin fibroblasts = experiment: β-galactosidase staining of UVB-induced cell aging; details: UVB of 10 mJ/cm^2; pretreated at 10 µM for 24 hours
Description: β-galactosidase is used to induce cellular aging of fibroblasts, which are the main cells of the epidermal layer of skin, by using UVB, the most important environmental factor in skin aging, as the most common marker for cell aging and β-galactosidase staining was performed to analyze the cell aging protection of Compound 32u. […]

PPARβ/δ [1] = biological target: T1, PPARβ/δ (Homo sapiens, UniProt Q03181); experiment: PPAR response element (PPRE)-luciferase assay in fibroblasts; details: fibroblasts overexpressing PPARβ/δ; compared with GW501516
T1 construct: endogenous in cells
T1 sequence (Q03181 1-441): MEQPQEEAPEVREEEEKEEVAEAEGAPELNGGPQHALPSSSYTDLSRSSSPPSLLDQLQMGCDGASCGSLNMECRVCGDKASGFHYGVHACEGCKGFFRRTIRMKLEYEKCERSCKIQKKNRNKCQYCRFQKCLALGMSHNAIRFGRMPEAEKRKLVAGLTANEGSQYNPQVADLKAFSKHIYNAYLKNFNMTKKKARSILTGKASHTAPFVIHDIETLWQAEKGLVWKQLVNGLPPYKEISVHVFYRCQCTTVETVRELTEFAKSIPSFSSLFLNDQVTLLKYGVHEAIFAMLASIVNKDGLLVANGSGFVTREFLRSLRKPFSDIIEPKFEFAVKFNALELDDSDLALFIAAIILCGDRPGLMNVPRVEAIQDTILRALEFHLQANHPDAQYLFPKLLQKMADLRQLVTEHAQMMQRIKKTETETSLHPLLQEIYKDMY
Description: Next, to analyze the effect of PPARβ/δ activity of Compound 69c, a PPAR response element (PPRE)-luciferase assay was performed on fibroblasts, which are the main cells of the skin epithelial layer. A binding site region of PPARβ/δ, i.e. plasmids in which the PPRE region was bound upstream of the luciferase gene were transfected by treating the cells with lipofectamine. Through this process, DNA is surrounded by lipofectamine, making it easier to pass the cell membrane. In addition, it is possible to identify which of the PPAR subtypes is effective by overexpressing PPARβ/δ in addition to the endogenous PPAR subtype. 18 to 24 hours after transduction, at least 5 hours after treatment with the candidate compound, fluorescence was measured by addition of the substrate of the luciferase assay system. Luciferase expression amount can be analyzed by the fluorescence value, and the activity level of PPARβ/δ can be analyzed through the above results.

MMP13 = MMP13 expression in UVB photoaging of skin fibroblasts, Western blotting; details: skin fibroblasts pretreated with 10 µM 1 hour before 8 mJ/cm^2 UVB; after 6 hours
Description: as §1

PPARβ/δ [2] = biological target: T1, PPARβ/δ; experiment: PPARβ/δ transfer into the nucleus, western blot; details: 1 hour and 30 minutes after treating cells
pro-collagen = experiment: Pro-collagen expression in UVB photoaging of skin fibroblasts, Western blotting; details: skin fibroblasts pretreated with 10 µM one hour before 8 mJ/cm^2 UVB; after 6 hours
Description: First, the effect of Compound 69c on pro-collagen expression by cell photoaging was analyzed. A collagen reduction model by UVB was constructed using skin fibroblasts to perform the experiments. Skin fibroblasts were pretreated with 10 µM Compound 69c one hour ago and irradiated with 8 mJ/cm^2 of UVB. After 6 hours, the cells were lysed and the expression of pro-collagen was confirmed via Western blotting.

[3] = test system: reactive oxygen species (ROS); experiment: Reactive oxygen species with DCF-DA fluorescent dye

CN1CCN(Cc2ccc3oc(-c4ccccc4NC(=O)c4ccc5ccccc5c4)nc3c2)CC1 [Compound 69c, N-(2-(5-((4-Methylpiperazin-1-yl)methyl)benzo[d]oxazol-2-yl)phenyl)-2-naphthamide]
mRNA expression level of SIRT 1 (SIRT 1; real-time PCR): increased
protein expression level of SIRT 1 (SIRT 1; western blot): increased
expression of MMP1 (MMP1): reduced
acetylation of p53 (p53): inhibited acetylation of p53 increased by UVB
β-galactosidase staining (skin fibroblasts): reduced
PPARβ/δ activity (PPRE-luciferase) (PPARβ/δ [1]): higher PPARβ/δ activity than GW501516
expression of MMP13 (MMP13): reduced
PPARβ/δ transfer in the nucleus (PPARβ/δ [2]): increase in PPARβ/δ transfer in the nucleus
expression of pro-collagen (pro-collagen): increased
reactive oxygen species induced by UVB [3]: inhibited

Reference: patent publication EP3613735A1, “NOVEL SIRT 1 ACTIVATOR AND MEDICINAL USE THEREOF” (Pusan National University Industry - University Cooperation …, priority 2017, dated 2018)
